# Measured values from patent US10905675B2, “Use of carbamate compound for prevention, alleviation or treatment of pruritus” (SK BIOPHARMACEUTICALS CO., LTD., priority 2016, dated 2021).
# How the values were obtained:
# [1] = tested on: acute pruritus induced by intradermal administration of serotonin; experiment: Acute pruritus animal model induced by intradermal administration of serotonin (scratching reactions); format: in vivo, rats (Sprague-Dawley); details: rats; for inhibition of acute pruritus (number of scratching reactions) compared to the control group: 1 hour before intradermal serotonin, scratching counted for 30 minutes
# Description: Mature male rats (Sprague-Dawley, 200 to 230 g) were used. The experimental animals were maintained at a light-and-darkness cycle of 12 hours (illuminated from 7 pm to 7 am), a temperature of 22 to 25° C., a relative humidity of 40 to 60%, and free access to water and food. The animals were randomly divided into three groups as follows: • Eight (8) rats as a control group, orally administered with 30% PEG400 as a vehicle at a dose of 5 ml/kg • Eight (8) rats, orally administered with the test compound at a dose of 10 mg/kg (5 ml/kg) • Eight (8) rats, orally administered with the test compound at a dose of 30 mg/kg (5 ml/kg)
# On the day before the experiment, the skin fur on the right scapula of the rats was shaved to an area of about 2 cm square. On the day of the experiment, serotonin hydrochloride was dissolved in 0.9% physiological saline at a concentration of 4 mg/ml. The rats were placed in an acrylic box (20×30×20 cm) and adapted for 15 minutes in a quiet area, followed by intradermal administration of the dissolved serotonin in 50 μl per rat on the shaved area (Thomsen et al, Scratch induction in the rat by intradermal serotonin: a model for pruritus, Acta Derm Venereol, 2001).
# Only when the rats scratched body parts within 5 cm square around the skin area where serotonin was administered, it was judged to be a valid scratching reaction.
# The test compound was orally administered to the rats at a dose of 10 mg/kg (5 ml/kg) and 30 mg/kg (5 ml/kg) 1 hour before intradermal administration of serotonin.
# [2] = tested on: chronic pruritus induced by administration of capsaicin immediately after birth; experiment: Chronic pruritus animal model induced by subcutaneous administration of capsaicin immediately after birth (scratching reactions); format: in vivo, rats (Sprague-Dawley); details: rats, oral 30 mg/kg, 1 hour before measurement, third week after capsaicin, scratching counted for 1 hour
# Description: Baby rats within 48 hours after birth (Sprague-Dawley, 7 to 10 g) were obtained together with the mother rats, and were used. The experimental animals were maintained at a light-and-darkness cycle of 12 hours (illuminated from 7 pm to 7 am), a temperature of 22 to 25° C., a relative humidity of 40 to 60%, and free access to water and food. Until the 21st day after birth, the baby rats were bred together with the mother rats and allowed to drink the mother's milk. After the 21st day, the baby rats were kept off the milk and separated from the mother rats. The animals were randomly divided into two groups as follows: • Seven (7) rats as a control group, orally administered with 30% PEG400 as a vehicle at a dose of 5 ml/kg • Seven (7) rats, orally administered with the test compound at a dose of 30 mg/kg (5 ml/kg) […]
# On the third week after capsaicin administration, the animals were placed in an acrylic box (20×30×20 cm), adapted for 30 minutes in a quiet area, and then observed for the number of scratching behaviors for 1 hour. One continuous scratching reaction was counted as one scratching reaction. […]
compound,measurement,setting,value
NC(=O)O[C@@H](Cn1ncnn1)c1ccccc1Cl [the test compound],dose dependence of the reduction of itching responses,[1]; oral 10 mg/kg and 30 mg/kg,dose-dependent
same,inhibition of acute pruritus (number of scratching reactions) compared to the control group,[1]; oral 10 mg/kg,statistically significantly inhibited
same,inhibition of acute pruritus (number of scratching reactions) compared to the control group,[1]; oral 30 mg/kg,statistically significantly inhibited
same,inhibition of chronic pruritus (number of scratching reactions) compared to the control group,[2],statistically significantly inhibited
